Settings: Fluid (supercritical or subcritical phases), Pulse-echo method

C=C(F)C(F)(F)F [2,3,3,3-tetrafluoro-1-propene]
Settings | speed of sound [m/s]
259.99 K, 4968 kPa | 655.69
260 K, 1989 kPa | 632.05
260 K, 3044 kPa | 640.57
260 K, 4057 kPa | 648.57
260 K, 5993 kPa | 663.37
285 K, 4006 kPa | 546.27
285 K, 5983 kPa | 565.09
285.01 K, 2033 kPa | 525.9
285.01 K, 3011 kPa | 536.18
285.01 K, 5090 kPa | 556.71
310 K, 5016 kPa | 456.81
310 K, 6057 kPa | 469.1
310.01 K, 2013 kPa | 415.62
310.01 K, 3042 kPa | 430.67
310.01 K, 4019 kPa | 444
334.98 K, 5937 kPa | 371.38
335 K, 2073 kPa | 293.74
335 K, 3039 kPa | 317.18
335 K, 3985 kPa | 336.92
335 K, 5008 kPa | 355.82
359.94 K, 6062 kPa | 275.99
359.96 K, 4997 kPa | 248.55

F/C=C/C(F)(F)F [trans-1,3,3,3-tetrafluoropropene]
Settings | speed of sound [m/s]
259.98 K, 1980 kPa | 715.11
259.98 K, 3989 kPa | 728.84
260 K, 6021 kPa | 742.08
260 K, 8007 kPa | 754.65
260.01 K, 10070 kPa | 767.16
285 K, 1956 kPa | 606.38
285 K, 4021 kPa | 624.26
285 K, 6056 kPa | 640.72
285 K, 8005 kPa | 655.64
285 K, 9989 kPa | 670.06
310 K, 2063 kPa | 497.64
310 K, 3947 kPa | 519.14
310 K, 10112 kPa | 578.79
310.01 K, 6041 kPa | 540.98
310.01 K, 8005 kPa | 559.88
335 K, 7985 kPa | 465.6
335 K, 10020 kPa | 488.5
335.01 K, 2007 kPa | 379.56
335.01 K, 4027 kPa | 413.08
335.01 K, 5978 kPa | 440.56
360 K, 6047 kPa | 340.1
360.02 K, 3998 kPa | 296.31
360.03 K, 8052 kPa | 373.95
360.03 K, 10036 kPa | 402.5
